Results on four compounds are retold here after patent publication US10519125B2, “Flavagline derivatives” (PIERRE FABRE MEDICAMENT, priority 2014, dated 2019).

pEC50: −log10 of the molar value. Read-outs that look alike come from different tables or passages of the source.

Data set [1] concerns HCT116 line (human colon cancer cell line). The data set is described as follows: Antiproliferative (cytotoxic) activity on HCT116 line, ATPLite cell viability, 72 hours. The format is cell-based. The note with it: read-out: HCT116 (EC50). The method, then:
2.1. Antiproliferative Activity of the Compounds According to the Invention (IC50 in M)
Culture of Lines and Measurement of Cell Viability:
The HCT116 line (ATCC, CCL-247) derived from colon cancer was cultured in MEM (Minimum Essential Medium Eagle) supplemented with 2 mM L-glutamine (Sigma, G7513), 5% fetal calf serum (Sigma, F7524) and antibiotics (Sigma, A59-55). The protocol for determining cytotoxic activity consists in seeding cells on 96-well plates (Perkin Elmer, 6005668) at a density of 1500 cells per well. After 24 hours of incubation, the test compound is applied in each well, using serial dilutions in the solvent dimethylsulfoxide (DMSO) (Sigma, D8418), from 10 mM stock solutions in 100% DMSO. Each dilution was added to the cells 24 hours after seeding. Under these conditions, the final solvent concentration is 0.1% DMSO. A reading of cell proliferation was carried out 72 hours after addition of the products with the ATPLite™ kit (Perkin Elmer, 6016947) and according to the manufacturer's recommendations. The analysis of the proliferation results was carried out by comparison with conditions where only the carrier solvent (culture medium, 0.1% DMSO) was added to the cells. The dose-response curves obtained were analyzed using the PRISM 4.03 software (GraphPad Software Inc.), or by an equivalent analytical method, to determine the concentration of each compound which inhibits 50% of cell proliferation (EC50).
By way of example, the cytotoxic properties of several compounds of the invention evaluated on the HCT116 line (human colon cancer cell line) are reported in Table 1.

Data set [2] concerns MDA-MB-231 human tumor xenograft. Nature of the data set: Antitumor activity, subcutaneous MDA-MB-231 breast cancer xenografts in SCID mice. Format: in vivo. The note with it: for Activity: q1d5 × 3, MDA-MB-231; for Deaths (%): q1d5 × 3, SCID mice. The procedure: Subcutaneous xenografts were established with MDA-MD-231 breast cancer cells (ATCC: HTB-26) in SCID mice (Harlan, U.K.). The animals were treated and cared after in accordance with the Guide For the Care and Use of Laboratory Animals (National Research Council, 1996) and with European Directive 86/609/EEC, under the supervision of a staff expert authorized to conduct experimental studies with laboratory animals.
All the experiments were conducted pursuant to French and local regulations (Department of Veterinary Services, Haute-Garonne, Toulouse) according to the directives of an ethics committee, based on the UKCCCR Guidelines for the Welfare of Animals in Experimental Neoplasia, as indicated above. The implantation of MDA-MB-231 human tumor fragments is carried subcutaneously in the flanks of SCID mice using a trocar and, for the study of tumor growth, the tumors are allowed to reach a median volume of 70-130 mm^3 before starting the studies.
After randomization in the treatment cages, the inhibitors were administered intravenously according to a g1d5×3 treatment scheme (5 injections per week for 3 weeks). The mice were monitored and weighed daily. The tumors were measured with a slide caliper and the tumor volumes (mm^3) were estimated using the following formula: volume=0.5 (length×width^2). Each experimental group consists of 5 individuals. The efficacy of the treatment was evaluated by analysis of the measurement of the median volume of the treated tumors compared with the median volume of the tumors receiving only carrier (control). The T/C evaluation criterion corresponds to: [(median volume of the treated group, T/median volume of the control group, C)×100]. This T/C ratio is expressed as a percentage. The optimal T/C value corresponds to the ratio which reflects the maximum inhibition of growth obtained during the study. The maximum gains or losses of weight, expressed as a percentage of the initial weight of the animals, as well as the percentage of drug-related deaths (i.e., the percentage of treated animals that died before the assessment) were used to provide an evaluation of the toxicity of the compounds. In accordance with the NCI (National Cancer Institute) criterion, a dose is deemed toxic if it induces weight loss greater than −20% relative to the initial weight of the mouse or if it induces more than 20% deaths (Corbett et al. J Exp Ther Oncol 1996, 1:95-108).

The mark [3] stands for this setting: HCT-116, HCT116, 72 hours after addition, ATPLite.
The mark [4] stands for this setting: Mus musculus, MDA-MB-231, iv, read-out: Opt. T/C (%).

Consider `COC(=O)[C@H]1[C@@H](O)[C@@]2(O)c3c(OC)cc(OCCN)cc3O[C@@]2(c2ccc(OC)cc2)[C@@H]1c1ccccc1` (racemic) [Compound 2, rac-(1R,2R,3S,3aR,8bS)-methyl 6-(2-aminoethoxy)-1,8b-dihydroxy-8-methoxy-3a-(4-methoxyphenyl)-3-phenyl-2,3,3a,8b-tetrahydro-1H-cyclopenta[b]benzofuran-2-carboxylate], for which the pEC50 in data set [1] (setting [3]) was 8.39. In data set [2] (0.2 mg/kg intravenously), the result was Active and the “Deaths (%)” value was determined as 0%. In data set [2] (setting [4]), the response vs control in vivo at 0.2 mg/kg was 37%.

In the case of `COc1ccc([C@@]23Oc4cc(OC)cc(OC)c4[C@]2(O)[C@@H]2OC(=S)N[C@@H]2[C@H]3c2ccccc2)cc1` (racemic) [Compound 46, rac-(3aR,4R,4aR,9bS,9cR)-9b-hydroxy-7,9-dimethoxy-4a-(4-methoxyphenyl)-4-phenyl-3,3a,4,4a,9b,9c-hexahydro-2H-benzofuro[3′,2′:3,4]cyclopenta[1,2-d]oxazole-2-thione], the pEC50 in data set [1] (setting [3]) was 8.59. In data set [2] (1.4 mg/kg intravenously), the outcome was Active and the “Deaths (%)” value turned out to be 0%. In data set [2] (setting [4]), the response vs control in vivo at 1.4 mg/kg worked out at 39%.

For `COC(=O)[C@H]1[C@@H](O)[C@@]2(O)c3c(OC)cc(OCCCCN)cc3O[C@@]2(c2ccc(OC)cc2)[C@@H]1c1ccccc1` [Compound 50, methyl (1R,2R,3S,3aR,8bS)-6-(4-aminobutoxy)-1,8b-dihydroxy-8-methoxy-3a-(4-methoxyphenyl)-3-phenyl-2,3,3a,8b-tetrahydro-1H-cyclopenta[b]benzofuran-2-carboxylate], in data set [1] (HCT-116, 72 h), the pEC50 was 8.91.

Regarding `COC(=O)[C@H]1[C@@H](O)[C@@]2(O)c3c(OC)cc(O[C@@H]4O[C@@H]([C@H](O)CO)CO[C@H]4OC)cc3O[C@@]2(c2ccc(OC)cc2)[C@@H]1c1ccccc1` [silvestrol, reference compound], the pEC50 in data set [1] (setting [3]) was 8.61. Moreover, the Activity entry in data set [2] (0.2 mg/kg intravenously) was “No activity”; in data set [2] (0.5 mg/kg intravenously), “No activity”; in data set [2] (0.7 mg/kg intravenously), “Toxic”; in data set [2] (1 mg/kg intravenously) it was “Toxic”; in data set [2] (1.4 mg/kg intravenously), “Toxic”. Further, the “Deaths (%)” value is given as 0% in data set [2] (0.2 mg/kg intravenously); 0% in data set [2] (0.5 mg/kg intravenously); 40% in data set [2] (0.7 mg/kg intravenously); 100% in data set [2] (1 mg/kg intravenously); 100% in data set [2] (1.4 mg/kg intravenously). Also, the response vs control in vivo at 0.2 mg/kg in data set [2] (setting [4]) worked out at 92%. For the same compound, the response vs control in vivo at 0.5 mg/kg in data set [2] (setting [4]) was 83%. The response vs control in vivo at 0.7 mg/kg in data set [2] (setting [4]) was determined as 63%. The toxicity entry in data set [2] (above a dose of 0.7 mg/kg) is recorded as “highly toxic”. Moreover, the antitumor activity entry in data set [2] (below a dose of 0.7 mg/kg) is “no antitumor activity”.
